ChEMBL document CHEMBL4304811, “Development of a Water-Soluble Indolylmaleimide Derivative IM-93 Showing Dual Inhibition of Ferroptosis and NETosis” (ACS Med Chem Lett, 2019)
Calls of active or inactive are those of the source. The rule behind the calls is not given here.

Legend:
[1] = system: Phosphatidylinositol 4,5-bisphosphate 3-kinase catalytic subunit alpha isoform (Homo sapiens), P42336 [Q546K]; test: Binding affinity to human partial length PIK3CA Q546K mutant (R108 to N1068 residues) expressed in mammalian expression system assessed as residual binding level at 10 uM by Kinomescan method relative to control
[2] = biological target: Casein kinase I isoform gamma-1 (Homo sapiens) (UniProt Q9HCP0); test: Binding affinity to wild-type human partial length CSNK1G1 (T15 to S353 residues) expressed in bacterial expression system assessed as residual binding level at 10 uM by Kinomescan method relative to control
Neutrophil = test: Inhibition of PMA-induced superoxide production in C57BL6 mouse neutrophils at 10 uM preincubated for 30 mins followed by PMA stimulation and measured after 30 mins by luminol-lucignenin based luminescence assay; assay type: functional, cell-based
[3] = biological target: Aurora kinase A (Homo sapiens) (UniProt O14965); test: Binding affinity to wild-type human partial length AURKA (E122 to K401 residues) expressed in mammalian expression system assessed as residual binding level at 10 uM by Kinomescan method relative to control
[4] = system: Epidermal growth factor receptor (Homo sapiens), P00533 [G719C]; test: Binding affinity to human partial length EGFR G719C mutant (R669 to V1011 residues) expressed in bacterial expression system assessed as residual binding level at 10 uM by Kinomescan method relative to control
[5] = biological target: Serine/threonine-protein kinase mTOR (Homo sapiens) (UniProt P42345); test: Binding affinity to wild-type human partial length MTOR (L1382 to W2549 residues) expressed in mammalian expression system assessed as residual binding level at 10 uM by Kinomescan method relative to control
[6] = Stability of compound in D2O at 0.012 mmol followed by TBHP addition measured after 24 hrs by 1H-NMR spectroscopy; assay type: physicochemical
[7] = biological target: Interleukin-1 receptor-associated kinase 4 (Homo sapiens) (UniProt Q9NWZ3); test: Binding affinity to wild-type human partial length IRAK4 (M1 to S460 residues) expressed in mammalian expression system assessed as residual binding level at 10 uM by Kinomescan method relative to control
[8] = biological target: Serine/threonine-protein kinase Nek7 (Homo sapiens) (UniProt Q8TDX7); test: Binding affinity to wild-type human full length NEK7 (M1 to S302 residues) expressed in bacterial expression system assessed as residual binding level at 10 uM by Kinomescan method relative to control
[9] = biological target: Tyrosine-protein kinase TXK (Homo sapiens) (UniProt P42681); test: Binding affinity to wild-type human partial length TXK (L238 to W527 residues) expressed in bacterial expression system assessed as residual binding level at 10 uM by Kinomescan method relative to control
[10] = biological target: MAP/microtubule affinity-regulating kinase 4 (Homo sapiens) (UniProt Q96L34); test: Binding affinity to wild-type human partial length MARK4 (K29 to G340 residues) expressed in bacterial expression system assessed as residual binding level at 10 uM by Kinomescan method relative to control
[11] = biological target: Serine/threonine-protein kinase SIK2 (Homo sapiens) (UniProt Q9H0K1); test: Binding affinity to wild-type human full length SIK2 (M1 to N926 residues) expressed in bacterial expression system assessed as residual binding level at 10 uM by Kinomescan method relative to control
[12] = biological target: Dual specificity mitogen-activated protein kinase kinase 4 (Homo sapiens) (UniProt P45985); test: Binding affinity to wild-type human partial length MEK4 (S84 to D399 residues) expressed in mammalian expression system assessed as residual binding level at 10 uM by Kinomescan method relative to control
[13] = biological target: Casein kinase II subunit alpha' (Homo sapiens) (UniProt P19784); test: Binding affinity to wild-type human full length CSNK2A2 (M1 to R350 residues) expressed in mammalian expression system assessed as residual binding level at 10 uM by Kinomescan method relative to control
[14] = system: Hepatocyte growth factor receptor (Homo sapiens), P08581 [Y1235D]; test: Binding affinity to human partial length MET Y1235D mutant (D1010 to S1367 residues) expressed in bacterial expression system assessed as residual binding level at 10 uM by Kinomescan method relative to control
[15] = biological target: Serine/threonine-protein kinase 26 (Homo sapiens) (UniProt Q9P289); test: Binding affinity to wild-type human full length MST4 (M1 to P416 residues) expressed in mammalian expression system assessed as residual binding level at 10 uM by Kinomescan method relative to control
[16] = biological target: Glycogen synthase kinase-3 alpha (Homo sapiens) (UniProt P49840); test: Binding affinity to wild-type human full length GSK3A (M1 to S483 residues) expressed in bacterial expression system assessed as residual binding level at 10 uM by Kinomescan method relative to control
[17] = biological target: Phosphatidylinositol 4,5-bisphosphate 3-kinase catalytic subunit delta isoform (Homo sapiens) (UniProt O00329); test: Binding affinity to wild-type human partial length PIK3CD (R108 to Q1044 residues) expressed in mammalian expression system assessed as residual binding level at 10 uM by Kinomescan method relative to control
[18] = biological target: Cyclin-dependent kinase-like 5 (Homo sapiens) (UniProt O76039); test: Binding affinity to wild-type human partial length CDKL5 (M1 to S337 residues) expressed in mammalian expression system assessed as residual binding level at 10 uM by Kinomescan method relative to control
[19] = biological target: cAMP-dependent protein kinase catalytic subunit PRKX (Homo sapiens) (UniProt P51817); test: Binding affinity to wild-type human partial length PRKX (M1 to F358 residues) expressed in bacterial expression system assessed as residual binding level at 10 uM by Kinomescan method relative to control
[20] = biological target: Tyrosine-protein kinase HCK (Homo sapiens) (UniProt P08631); test: Binding affinity to wild-type human full length HCK (M22 to P526 residues) expressed in bacterial expression system assessed as residual binding level at 10 uM by Kinomescan method relative to control
[21] = biological target: Leucine-rich repeat serine/threonine-protein kinase 2 (Homo sapiens) (UniProt Q5S007); test: Binding affinity to wild-type human partial length LRRK2 (H970 to E2527 residues) expressed in mammalian expression system assessed as residual binding level at 10 uM by Kinomescan method relative to control
[22] = biological target: Wee1-like protein kinase 2 (Homo sapiens) (UniProt P0C1S8); test: Binding affinity to wild-type human partial length WEE2 (M204 to K492 residues) expressed in bacterial expression system assessed as residual binding level at 10 uM by Kinomescan method relative to control
[23] = biological target: Serine/threonine-protein kinase Sgk2 (Homo sapiens) (UniProt Q9HBY8); test: Binding affinity to wild-type human partial length SGK2 (L54 to C427 residues) expressed in mammalian expression system assessed as residual binding level at 10 uM by Kinomescan method relative to control
[24] = biological target: Calcium/calmodulin-dependent protein kinase kinase 1 (Homo sapiens) (UniProt Q8N5S9); test: Binding affinity to wild-type human partial length CAMKK1 (R65 to E414 residues) expressed in bacterial expression system assessed as residual binding level at 10 uM by Kinomescan method relative to control

## CC(C)N1C(=O)C(NCCCN(C)C)=C(c2cn(C)c3ccccc23)C1=O.Cl
[1]
  Activity: 100%
[2]
  Activity: 89%
Neutrophil
  inhibition: inactive
[3]
  Activity: 90%
[4]
  Activity: 100%
[5]
  Activity: 87%
[6]
  Stability: Stable
[7]
  Activity: 74%
[8]
  Activity: 95%
[9]
  Activity: 88%
[10]
  Activity: 64%
[11]
  Activity: 100%
[12]
  Activity: 100%
[13]
  Activity: 78%
[14]
  Activity: 99%
[15]
  Activity: 83%
[16]
  Activity: 83%
[17]
  Activity: 78%
[18]
  Activity: 96%
[19]
  Activity: 88%
[20]
  Activity: 100%
[21]
  Activity: 94%
[22]
  Activity: 100%
[23]
  Activity: 82%
[24]
  Activity: 93%
